Patent US20110150774A1, “SCREENING FOR MODULATORS OF CES1 AND/OR CES3 FOR THE TREATMENT OF ACNE, OF SEBORRHOEIC DERMATITIS OR OF HYPERSEBORRHOEA” (GALDERMA RESEARCH & DEVELOPMENT, priority 2008, published 2011)

Experiments:
Type in all cases: in vivo
CES1 = CES1 gene expression in rat sebaceous gland (epidermal split) after topical PPARgamma agonist, real-time PCR; conditions: topical 1% in acetone, female FUZZY rat, mRNA standardized to 18S, versus carrier group; for CES1 Relative induction - kinetics (hours): 0: 0 hours; for CES1 Relative induction - kinetics (hours): 8: 8 hours; for CES1 Relative induction - kinetics (hours): 24: 24 hours; for CES1 Relative induction - kinetics (hours): 48: 48 hours; for CES1 Relative induction - kinetics (hours): 96: 96 hours
Source text: (§1) Materials and methods: • Animals: Species: rat • Strain: Ico:HSd:FUZZY-fz • Gender: female • Age: 10 weeks • Number per batch: 40 (8 animals per group) • Treatment: Route of administration: topical • Compound/batch: PPARgamma agonists: • A: 5-{4-[2-(methylpyridin-2-ylamino)ethoxy]benzyl}thiazolidine-2,4-dione • B: 2-(methoxyethoxymethoxy)naphthalene-2-carboxylic acid [4′-(2,4-dioxothiazolidin-5-ylmethyl)biphenyl-3-ylmethyl]methylamide […] • C: (S)-2-ethoxy-3-{4-[6-(3-heptyl-1-methylureido)pyridin-2-yl]phenyl}propionic acid • Doses: 1% • Carrier: acetone (001) • Duration: 96 hours Method of evaluation: The animals are weighed at the beginning and at the end of the study. Skin biopsies are taken (6 samples of skin excised per rat) in order to analyze the expression of the genes (RNA extraction, reverse transcriptase and real-time PCR). The samples are stored at 4° C. overnight before incubation in 1 M sodium bromide (NaBr) for 2 hours at 37° C. After incubation, the samples are separated into epidermis or dermis. The epidermal samples are stored at 20° C. Under these conditions, the sebaceous glands are in the epidermal split. PCRs are carried out, beginning with the cDNAs originating from the epidermal splits containing sebaceous glands from control rats or rats treated with a PPARγ agonist: the mRNA is extracted using a column and quantified. The quality of the mRNAs is measured and is represented by the 18S/28S ratio. The results are standardized with respect to 18S, expressed as relative induction versus untreated animals (carrier group). The statistical analysis is obtained using internal software based on a modified Monte Carlo statistical analysis.

CES3 [1] = assay: CES3 gene expression in rat sebaceous gland (epidermal split) after topical PPARgamma agonist, real-time PCR; conditions: topical 1% in acetone, female FUZZY rat, mRNA standardized to 18S, versus carrier group; for CES3 Relative induction - kinetics (hours): 0: 0 hours; for CES3 Relative induction - kinetics (hours): 8: 8 hours; for CES3 Relative induction - kinetics (hours): 24: 24 hours; for CES3 Relative induction - kinetics (hours): 48: 48 hours; for CES3 Relative induction - kinetics (hours): 96: 96 hours
Source text: as §1, with “Ico:Hsd FUZZY-fz” for “Ico:HSd:FUZZY-fz”

CES3 [2] = assay: CES3 expression in Fuzzy rat epidermal split after 8 days of topical treatment, Affymetrix transcriptome analysis; conditions: topical 1% once a day for 8 days, female FUZZY rat
Method: The studies are carried out in female Fuzzy rats (Hsd: FUZZY-fz) 10 weeks old at the beginning of the study. The animals are treated at a dose of 1% (PPARg agonist Rosiglitazone in solution in acetone) once a day for 8 days. Two hours after the final treatment, the animals are sacrificed by euthanasia and the skin on the back is removed. After incubation in […], the epidermis carrying the sebaceous glands is detached from the dermis (epidermal split). After grinding of the samples, the mRNA is prepared using Qiagen columns, in accordance with the suppliers' instructions. The material thus prepared is subjected to large-scale transcriptome analysis on an Affymetrix platform. The data are subsequently standardized and, after statistical analysis, the results produced are expressed in arbitrary expression units (see below) accompanied, for each piece of data, by a statistical value for presence of the transcript (presence=1; absence=0).

Structure (SMILES) | CES1 Relative induction - kinetics (hours): 0 (CES1) | CES1 Relative induction - kinetics (hours): 8 (CES1) | CES1 Relative induction - kinetics (hours): 24 (CES1) | CES1 Relative induction - kinetics (hours): 48 (CES1) | CES1 Relative induction - kinetics (hours): 96 (CES1) | CES3 Relative induction - kinetics (hours): 0 (CES3 [1]) | CES3 Relative induction - kinetics (hours): 8 (CES3 [1]) | CES3 Relative induction - kinetics (hours): 24 (CES3 [1]) | CES3 Relative induction - kinetics (hours): 48 (CES3 [1]) | CES3 Relative induction - kinetics (hours): 96 (CES3 [1]) | Significance of the expression after treatment with 1% Rosiglitazone (presence =1, absence =0) (CES3 [2]; control condition 1) | Expression after treatment with 1% Rosiglitazone (CES3, 1370363_at) (CES3 [2]; control condition 443)
CN(CCOc1ccc(CC2SC(=O)NC2=O)cc1)c1ccccn1 (stereo not shown) [A, 5-{4-[2-(methylpyridin-2-ylamino)ethoxy]benzyl}thiazolidine-2,4-dione] | 1 | 1.93 | 1.01 | 0.45 | 0.13 | 1 | 1.72 | 0.46 | 0.22 | 0.07 |  | 
CCCCCCCNC(=O)N(C)c1cccc(-c2ccc(C[C@H](OCC)C(=O)O)cc2)n1 [C, (S)-2-ethoxy-3-{4-[6-(3-heptyl-1-methylureido)pyridin-2-yl]phenyl}propionic acid] | 1 | 0.55 | 0.38 | 0.04 | 0.03 | 1 | 0.33 | 0.12 | 0.02 | 0.00 |  | 
CN(CCOc1ccc(CC2SC(=O)NC2=O)cc1)c1ccccn1 (stereo not shown) [Rosiglitazone] |  |  |  |  |  |  |  |  |  |  | 0 | 15 arbitrary expression units
